From PubChem BioAssay (NCI)
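How tested: cells in 96-well plates exposed to compound for 48 hours at five concentrations. GI50: concentration for 50% inhibition of growth. At the TGI there is no net growth.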

What was measured:
Experiment in all cases: NCI anticancer screen, dose series, 48 h
CAKI-1 renal = test system: CAKI-1 renal
HS 578T breast = test system: HS 578T breast
T-47D breast = test system: T-47D breast
DU-145 prostate = test system: DU-145 prostate
IGROV1 ovarian = test system: IGROV1 ovarian
TK-10 renal = test system: TK-10 renal
ACHN renal = test system: ACHN renal
NCI-H522 lung = test system: NCI-H522 lung
RPMI-8226 leukemia = test system: RPMI-8226 leukemia
MCF7 breast = test system: MCF7 breast
SK-MEL-5 melanoma = test system: SK-MEL-5 melanoma
OVCAR-4 ovarian = test system: OVCAR-4 ovarian
NCI-H226 lung = test system: NCI-H226 lung
BT-549 breast = test system: BT-549 breast
SF-295 CNS = test system: SF-295 CNS
EKVX NSCLC = test system: EKVX NSCLC
COLO 205 colon = test system: COLO 205 colon
CCRF-CEM leukemia = test system: CCRF-CEM leukemia
HT29 colon = test system: HT29 colon
UACC-62 melanoma = test system: UACC-62 melanoma
RXF 393 renal = test system: RXF 393 renal
MDA-MB-231 breast = test system: MDA-MB-231 breast
SN12C renal = test system: SN12C renal
HCT-15 colon = test system: HCT-15 colon
SK-MEL-2 melanoma = test system: SK-MEL-2 melanoma
SW-620 colon = test system: SW-620 colon
K-562 leukemia = test system: K-562 leukemia
SK-OV-3 ovarian = test system: SK-OV-3 ovarian
786-0 renal = test system: 786-0 renal

CCN(CCCNC(=O)Cc1cc(=O)oc2cc(N(C)C)ccc12)CCNc1ccnc2cc(Cl)ccc12
TGI (CAKI-1 renal): 39.5 µM
GI50 (HS 578T breast): 13.3 µM
TGI (HS 578T breast): 32.1 µM
GI50 (T-47D breast): 12.5 µM
TGI (T-47D breast): 39.8 µM
GI50 (DU-145 prostate): 18.4 µM
TGI (DU-145 prostate): 47.7 µM
GI50 (IGROV1 ovarian): 13.1 µM
TGI (IGROV1 ovarian): 35.1 µM
GI50 (TK-10 renal): 6.46 µM
TGI (TK-10 renal): 20.3 µM
GI50 (ACHN renal): 9.21 µM
TGI (ACHN renal): 24.3 µM
GI50 (NCI-H522 lung): 4.4 µM
TGI (NCI-H522 lung): 16.2 µM
GI50 (RPMI-8226 leukemia): 12.4 µM
TGI (RPMI-8226 leukemia): 38.8 µM
GI50 (MCF7 breast): 7.42 µM
TGI (MCF7 breast): 22.7 µM
GI50 (SK-MEL-5 melanoma): 1.55 µM
TGI (SK-MEL-5 melanoma): 2.93 µM
GI50 (OVCAR-4 ovarian): 15 µM
TGI (OVCAR-4 ovarian): 41.4 µM
GI50 (NCI-H226 lung): 10.9 µM
TGI (NCI-H226 lung): 34.4 µM
GI50 (BT-549 breast): 14.4 µM
TGI (BT-549 breast): 34.6 µM
GI50 (SF-295 CNS): 12.4 µM
TGI (SF-295 CNS): 27.6 µM
GI50 (EKVX NSCLC): 22.2 µM
TGI (EKVX NSCLC): 70 µM
GI50 (COLO 205 colon): 6.54 µM
TGI (COLO 205 colon): 20.8 µM
GI50 (CCRF-CEM leukemia): 4.38 µM
TGI (CCRF-CEM leukemia): 34 µM
GI50 (HT29 colon): 3.39 µM
TGI (HT29 colon): 12.1 µM
GI50 (UACC-62 melanoma): 3.36 µM
TGI (UACC-62 melanoma): 11.9 µM
GI50 (RXF 393 renal): 1.72 µM
TGI (RXF 393 renal): 5.15 µM
GI50 (MDA-MB-231 breast): 3.47 µM
TGI (MDA-MB-231 breast): 16.9 µM
GI50 (SN12C renal): 13.9 µM
TGI (SN12C renal): 36 µM
GI50 (HCT-15 colon): 10.4 µM
TGI (HCT-15 colon): 29.5 µM
GI50 (SK-MEL-2 melanoma): 12.6 µM
TGI (SK-MEL-2 melanoma): 26.2 µM
GI50 (SW-620 colon): 5.84 µM
TGI (SW-620 colon): 19.4 µM
GI50 (K-562 leukemia): 2.78 µM
TGI (K-562 leukemia): 7.56 µM
GI50 (SK-OV-3 ovarian): 23.9 µM
TGI (SK-OV-3 ovarian): 56.5 µM
GI50 (786-0 renal): 16 µM
TGI (786-0 renal): 36.8 µM
